The record followed here is patent publication US11021479B2, “Pyridoquinazoline derivatives useful as protein kinase inhibitors” (ONCOSTELLAE, S.L., priority 2017, dated 2021).

Some results are limits rather than exact numbers.

Common to all, as to assay type: biochemical
The target in one test is T1, JAK2 (Homo sapiens, UniProt O60674).
T1 construct: purchased Carna Biosciences 08-045
The experiment in a line: Functional assay of protein Janus kinases (Caliper mobility shift), JAK2. As to conditions: ATP 300 μM, incubation 30 min; read-out: JAK2 enzymatic activity (IC50) score. As to the method:
(§1) The functional assays of protein Janus kinases were carried out in 384-well plates using a final volume of 30 μl. […] The reaction was reads in a “Caliper EzReader LabChip 3000” (Caliper, Hopkinton, Mass.) reader, based on electrophoretic mobility of the fluorescent substrate and the phosphorylated product.
(§2) The inhibition percentages were calculated by comparison between control reactions, for 100% of inhibition and reactions with only DMSO for 0% of inhibition.

A further test has as its target T2, JAK1 (Homo sapiens, UniProt P23458).
T2 construct: purchased Carna Biosciences 08-144
The test is described as follows: Functional assay of protein Janus kinases (Caliper mobility shift), JAK1. As to conditions: ATP 100 μM, incubation 150 min; read-out: JAK1 enzymatic activity (IC50) score. As to the method:
as §1, §2

In another test the target is T3, TYK2 (Homo sapiens, UniProt P29597).
T3 construct: purchased Carna Biosciences 08-147
T3 sequence (P29597 871-1187 limits assumed): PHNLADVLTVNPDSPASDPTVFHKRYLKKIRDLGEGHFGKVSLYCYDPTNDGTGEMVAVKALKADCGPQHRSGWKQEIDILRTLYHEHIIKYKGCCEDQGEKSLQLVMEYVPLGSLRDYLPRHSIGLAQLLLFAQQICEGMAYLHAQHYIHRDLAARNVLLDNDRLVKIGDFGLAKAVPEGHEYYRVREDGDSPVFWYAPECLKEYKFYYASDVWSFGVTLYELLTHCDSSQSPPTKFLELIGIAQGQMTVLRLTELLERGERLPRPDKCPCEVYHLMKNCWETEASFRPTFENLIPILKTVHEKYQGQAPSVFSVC
The experiment in a line: Functional assay of protein Janus kinases (Caliper mobility shift), TYK2. The note with it: ATP 20 μM, incubation 45 min; read-out: TYK2 enzymatic activity (IC50) score. As to the method: as §1, §2

For the next test, the target named is T4, JAK3 (Homo sapiens, UniProt P52333).
T4 construct: purchased Carna Biosciences 08-046
T4 sequence (P52333 795-1124 limits assumed): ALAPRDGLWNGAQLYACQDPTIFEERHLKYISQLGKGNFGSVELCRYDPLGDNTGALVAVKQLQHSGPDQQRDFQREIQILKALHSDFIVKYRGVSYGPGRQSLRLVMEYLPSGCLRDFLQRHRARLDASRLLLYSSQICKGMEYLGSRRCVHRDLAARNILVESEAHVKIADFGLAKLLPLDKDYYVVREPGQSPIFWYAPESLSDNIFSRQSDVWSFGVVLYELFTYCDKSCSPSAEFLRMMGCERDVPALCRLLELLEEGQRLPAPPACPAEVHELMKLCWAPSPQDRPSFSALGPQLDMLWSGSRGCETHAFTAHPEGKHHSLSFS
The test is described as follows: Functional assay of protein Janus kinases (Caliper mobility shift), JAK3. As to conditions: ATP 8 μM, incubation 30 min; read-out: JAK3 enzymatic activity (IC50) score. As to the method: as §1, §2

A further test has as its target T5, Human ARK5/NUAK1 (Homo sapiens, UniProt O60285).
T5 construct: purchased Reaction Biology ARK5/NUAK1
T5 sequence (O60285 1-661): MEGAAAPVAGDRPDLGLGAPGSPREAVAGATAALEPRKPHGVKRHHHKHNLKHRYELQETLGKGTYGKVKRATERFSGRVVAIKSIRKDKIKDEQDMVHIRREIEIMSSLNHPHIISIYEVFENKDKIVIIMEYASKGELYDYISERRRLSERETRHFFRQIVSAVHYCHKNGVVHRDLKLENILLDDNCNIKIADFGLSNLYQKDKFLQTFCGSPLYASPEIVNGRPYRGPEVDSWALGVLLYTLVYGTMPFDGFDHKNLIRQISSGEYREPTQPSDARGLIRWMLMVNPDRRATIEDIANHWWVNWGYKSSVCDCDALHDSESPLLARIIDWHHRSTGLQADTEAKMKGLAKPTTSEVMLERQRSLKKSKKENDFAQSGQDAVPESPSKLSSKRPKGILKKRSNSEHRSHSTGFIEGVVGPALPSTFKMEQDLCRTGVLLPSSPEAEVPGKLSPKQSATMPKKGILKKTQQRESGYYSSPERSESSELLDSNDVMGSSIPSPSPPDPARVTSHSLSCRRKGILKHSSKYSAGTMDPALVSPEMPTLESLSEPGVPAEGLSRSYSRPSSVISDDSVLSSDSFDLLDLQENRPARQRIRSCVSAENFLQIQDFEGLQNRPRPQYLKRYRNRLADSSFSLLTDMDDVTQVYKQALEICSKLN
The test is described as follows: ARK5 activity inhibition test (Reaction Biology kit, 33P-ATP filter assay). As to conditions: ATP 10 μM, peptide substrate 20 μM, 120 min; read-out: ARK5 enzymatic activity (IC50) score. How it is done: Activity test was carried out using the kit from Reaction Biology (CAT #: ARK5/NUAK1). The test uses enzyme Human ARK5/NUAK1 and the substrate is the peptide […] (SEQ ID NO: 1), 20 μM and ATP 10 μM. Other reagents are the following: Base Reaction buffer; 20 mM Hepes (pH 7.5), 10 mM MgCl2, 1 mM EGTA, 0.02% Brij35, 0.02 mg/ml BSA, 0.1 mM Na3VO4, 2 mM DTT, 1% DMSO.
The reaction was carried out following the instructions of manufacturer. Briefly, kinase/substrate pairs were prepared in reaction buffer. Compounds were delivered into the reaction, followed 20 minutes later by addition of a mixture of ATP (Sigma, St. Louis Mo.) and ^33P ATP (Perkin Elmer, Waltham Mass.) to a final concentration of 10 μM. Reactions were carried out at room temperature for 120 min, followed by spotting of the reactions onto P81 ion exchange filter paper (Whatman Inc., Piscataway, N.J.). Unbound phosphate was removed by extensive washing of filters in 0.75% phosphoric acid. […] IC50 values and curve fits were obtained using Prism (GraphPad Software).

T2 sequence (P23458 850-1154 limits assumed): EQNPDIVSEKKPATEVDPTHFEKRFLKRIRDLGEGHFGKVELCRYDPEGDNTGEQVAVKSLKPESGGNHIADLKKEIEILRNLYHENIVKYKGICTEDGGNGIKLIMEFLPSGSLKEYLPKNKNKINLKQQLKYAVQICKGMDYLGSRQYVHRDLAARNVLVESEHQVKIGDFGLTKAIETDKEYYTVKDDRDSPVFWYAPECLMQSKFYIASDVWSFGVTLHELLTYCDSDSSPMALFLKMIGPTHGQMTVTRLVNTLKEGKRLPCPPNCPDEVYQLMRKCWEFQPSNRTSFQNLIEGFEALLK
T1 sequence (O60674 826-1132 limits assumed): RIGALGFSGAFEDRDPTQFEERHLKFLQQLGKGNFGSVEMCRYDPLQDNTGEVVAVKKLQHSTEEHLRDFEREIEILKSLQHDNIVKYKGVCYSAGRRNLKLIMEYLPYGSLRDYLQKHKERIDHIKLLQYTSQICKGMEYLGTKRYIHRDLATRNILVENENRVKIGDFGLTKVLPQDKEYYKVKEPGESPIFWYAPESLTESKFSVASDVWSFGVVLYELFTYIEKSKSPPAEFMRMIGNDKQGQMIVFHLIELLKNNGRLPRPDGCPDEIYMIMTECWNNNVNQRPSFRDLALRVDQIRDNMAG

The term IC50 denotes the concentration at which inhibition is half-maximal. Consider `O=C(NC1CCCCC1)c1cccn2c(=O)c3cc(C4CC4)ccc3nc12` [Example 1, N-cyclohexyl-2-cyclopropyl-11-oxo-11H-pyrido[2,1-b]quinazoline-6-carboxamide], for which the IC50 on JAK2 was > 1000 nM; on JAK1, > 1000 nM; on TYK2 it was < 100 nM; on JAK3, < 100 nM; at Human ARK5/NUAK1, < 100 nM.
`O=C(NC1CCCC1)c1cccn2c(=O)c3cc(C4CC4)ccc3nc12` [Example 2, N-cyclopentyl-2-cyclopropyl-11-oxo-11H-pyrido[2,1-b]quinazoline-6-carboxamide]: the half-inhibitory concentration (IC50) was > 1000 nM at JAK2; > 1000 nM on JAK1; < 100 nM at TYK2; < 100 nM at JAK3; < 100 nM at Human ARK5/NUAK1.
On to `COc1ccc2nc3c(C(=O)NC4CCCCC4)cccn3c(=O)c2c1` [Example 20, N-cyclohexyl-2-methoxy-11-oxo-11H-pyrido[2,1-b]quinazoline-6-carboxamide], for which the half-inhibitory concentration (IC50) at TYK2, at JAK3 and on Human ARK5/NUAK1 was < 100 nM in each case.
`O=C(NC1CCCCC1)c1cccn2c(=O)c3cc(-c4ccc(F)cc4)ccc3nc12` [Example 29, N-cyclohexyl-2-(4-fluorophenyl)-11-oxo-11H-pyrido[2,1-b]quinazoline-6-carboxamide]: the IC50 at JAK2 is > 1000 nM; on JAK1, > 1000 nM; on TYK2, > 1000 nM; at JAK3 it was 100 to 1000 nM; on Human ARK5/NUAK1, < 100 nM.
Regarding `O=C(NC1CCCCC1)c1cccn2c(=O)c3cc(-c4ccncc4)ccc3nc12` [Example 33, N-cyclohexyl-11-oxo-2-(pyridin-4-yl)-11H-pyrido[2,1-b]quinazoline-6-carboxamide], the IC50 on JAK2 is > 1000 nM; on JAK1 it was > 1000 nM; on TYK2 it was < 100 nM; at JAK3 it was < 100 nM; on Human ARK5/NUAK1, < 100 nM.
`CN1CCN(c2ccc3nc4c(C(=O)NC5CCCCC5)cccn4c(=O)c3c2)CC1` [Example 36, N-cyclohexyl-2-(4-methylpiperazin-1-yl)-11-oxo-11H-pyrido[2,1-b]quinazoline-6-carboxamide]: the 50% inhibitory concentration (IC50) is > 1000 nM on JAK2; > 1000 nM at JAK1; < 100 nM on TYK2; < 100 nM on JAK3; < 100 nM at Human ARK5/NUAK1.
As for `O=C(NC1CCCCC1)c1cccn2c(=O)c3cc(N4CCOCC4)ccc3nc12` [Example 38, N-cyclohexyl-2-morpholino-11-oxo-11H-pyrido[2,1-b]quinazoline-6-carboxamide], the IC50 on JAK2 was > 1000 nM; on JAK1, > 1000 nM; on TYK2, < 100 nM; on JAK3, < 100 nM; at Human ARK5/NUAK1 it was < 100 nM.
